± gives the expanded uncertainty stated by the source.
Conditions: 101.33 kPa; for mass density: Vibrating tube method; for speed of sound: Sing-around technique in a fixed-path interferometer; for viscosity: 368.15 K, Visco Elite L rheometer

CCCCCCCC/C=C\CCCCCCCC(=O)[O-].OCC[NH2+]CCO [bis(2-hydroxyethyl)ammonium oleate]
Liquid crystal of unknown type
Conditions	mass density [kg/m3]	speed of sound [m/s]
327.16 K	946.149 ± 1.7	–
327.41 K	945.984 ± 1.7	1427.8 ± 3.7
327.66 K	945.82 ± 1.7	1427 ± 3.7
327.91 K	945.656 ± 1.7	1426.2 ± 3.7
328.16 K	945.489 ± 1.7	1425.5 ± 3.7
328.41 K	945.323 ± 1.7	1424.7 ± 3.7
328.66 K	945.159 ± 1.7	1423.9 ± 3.7
328.91 K	944.994 ± 1.7	1423.2 ± 3.7
329.16 K	944.829 ± 1.7	1422.4 ± 3.7
329.41 K	944.663 ± 1.7	1421.6 ± 3.7
329.66 K	944.498 ± 1.7	1420.8 ± 3.7
329.91 K	944.332 ± 1.7	1420.1 ± 3.7
330.16 K	944.168 ± 1.7	1419.3 ± 3.7
330.41 K	944.002 ± 1.7	1418.5 ± 3.7
330.66 K	943.835 ± 1.7	1417.8 ± 3.7
330.91 K	943.671 ± 1.7	1417 ± 3.7
331.16 K	943.506 ± 1.7	1416.3 ± 3.7
331.4 K	943.341 ± 1.7	1415.5 ± 3.7
331.66 K	943.175 ± 1.7	1414.7 ± 3.7
331.91 K	943.009 ± 1.7	1414 ± 3.7
332.16 K	942.844 ± 1.7	1413.2 ± 3.7
332.41 K	942.679 ± 1.7	1412.5 ± 3.7
332.66 K	942.512 ± 1.7	1411.7 ± 3.7
332.91 K	942.347 ± 1.7	1410.9 ± 3.7
333.16 K	942.18 ± 1.7	1410.2 ± 3.7
333.41 K	942.013 ± 1.7	1409.4 ± 3.7
333.66 K	941.847 ± 1.7	1408.7 ± 3.7
333.91 K	941.682 ± 1.7	1407.9 ± 3.7
334.16 K	941.516 ± 1.7	1407.2 ± 3.7
334.41 K	941.349 ± 1.7	1406.4 ± 3.7
334.66 K	941.183 ± 1.7	1405.6 ± 3.7
334.91 K	941.018 ± 1.7	1404.9 ± 3.7
335.16 K	940.851 ± 1.7	1404.1 ± 3.7
335.41 K	940.685 ± 1.7	1403.4 ± 3.7
335.66 K	940.519 ± 1.7	1402.6 ± 3.7
335.91 K	940.352 ± 1.7	1401.8 ± 3.7
336.16 K	940.185 ± 1.7	1401.1 ± 3.7
336.41 K	940.019 ± 1.7	1400.3 ± 3.7
336.66 K	939.852 ± 1.7	1399.6 ± 3.7
336.91 K	939.686 ± 1.7	1398.8 ± 3.7
337.16 K	939.519 ± 1.7	1398 ± 3.7
337.4 K	939.352 ± 1.7	1397.3 ± 3.7
337.66 K	939.185 ± 1.7	1396.5 ± 3.7
337.91 K	939.017 ± 1.7	1395.8 ± 3.7
338.16 K	938.852 ± 1.7	1395 ± 3.7
338.41 K	938.684 ± 1.7	1394.3 ± 3.7
338.66 K	938.517 ± 1.7	1393.5 ± 3.7
338.91 K	938.351 ± 1.7	1392.8 ± 3.7
339.16 K	938.182 ± 1.7	1392 ± 3.7
339.41 K	938.014 ± 1.7	1391.2 ± 3.7
339.66 K	937.846 ± 1.7	1390.5 ± 3.7
339.91 K	937.68 ± 1.7	1389.7 ± 3.7
340.15 K	937.513 ± 1.7	1389 ± 3.7
340.41 K	937.345 ± 1.7	1388.2 ± 3.7
340.66 K	937.177 ± 1.7	1387.5 ± 3.7
340.91 K	937.009 ± 1.7	1386.7 ± 3.7
341.16 K	936.844 ± 1.7	1386 ± 3.7
341.41 K	936.674 ± 1.7	1385.2 ± 3.7
341.65 K	936.507 ± 1.7	1384.5 ± 3.7
341.91 K	936.339 ± 1.7	1383.8 ± 3.7
342.16 K	936.171 ± 1.7	1383 ± 3.7
342.41 K	936.003 ± 1.7	1382.3 ± 3.7
342.66 K	935.836 ± 1.7	1381.5 ± 3.7
342.9 K	935.668 ± 1.7	1380.8 ± 3.7
343.15 K	935.491 ± 1.7	1380.1 ± 3.7

Conditions	viscosity [mPa·s]
Liquid	37.2 ± 0.7
Liquid crystal of unknown type	37.2 ± 0.7
